Measurements reported in patent US8445431B2, “Ligands having metal binding ability and targeting properties” (The Ohio State University, priority 2004, dated 2013).
No end group written: not given here.

Experiments:
[1] = tested on: pUC19 supercoiled plasmid DNA; assay: Plasmid DNA cleavage, agarose gel electrophoresis and quantitation; type: biochemical
Experimental: Plasmid pUC19 (2686 bp) was purchased from New England Biolabs Inc. The plasmid was transformed into DH5α competent cells, amplified, and pure plasmid isolated using QIAGEN protocols. Fresh plasmid DNA (over 90-95% supercoiled) was prepared before each experiment to avoid contamination by any other form of plasmid DNA. In general, DNA cleavage experiments were performed with 50 μM base pair concentration of pUC19, 25 μM Cu-peptide, and 250 μM ascorbate in 10 mM Tris buffer, pH 7.4, at 37° C. A control reaction was carried out using the same conditions as the cleavage reaction, but lacking the Cu-peptide complex. The reactions were quenched with a loading buffer containing 0.5 M EDTA.
Agarose gel electrophoresis (0.8%) containing ethidium bromide was performed under standard conditions. DNA samples were run on horizontal gels in 1×TAE buffer for 90 min at […].
Quantitation of closed circular, nicked and linear DNA was made by densitometric analysis of ethidium bromide containing agarose gels. Quantitation was performed by fluorescence imaging by use of a Gel-Doc 1000 (BioRad) and data analysis with Multianalysis software (version 1.1) provided by the manufacturer using the volume quantitation method. In all cases, background fluorescence was subtracted by reference to a lane containing no DNA. A correction factor of 1.47 was used for supercoiled DNA, since the ability of ethidium bromide to intercalate into supercoiled DNA (form I) is decreased relative to nicked (form II) and linear DNA (form III). The fraction of each form of DNA was calculated by dividing the intensity of each band by the total intensities of all the bands in the lane. All results were obtained from experiments that were performed at least in triplicate.
Consequently, the reaction was considered in terms of the standard rate law shown in equation 3. The initial rate (V0) corresponding to less than 5% conversion was considered as a function of [complex]^+ (equation 4 and 5). Rate=V=d[DNA]/dt=kobs[complex]t^m (3) • where kobs=kn, [DNA] when t=0, V0=kobs[complex]0^m (4) and ln V0=m ln[complex]0+ln kobs (5) A plot of ln V0 versus ln [[GGH-Cu]^−]0 at constant DNA concentration produced a straight line relationship (R^2=0.99) (FIG. 27A).
Investigation of DNA linearization. Following cleavage, the fraction of full length linear DNA, f(III), is related to the number, n2, of double-strand breaks per molecule given by the first term of a Poisson distribution (equation 1). f(III)=n2exp(−n2) (1) The sum of single-strand, n1, and double-strand, n2, breaks per molecule (n1+n2) was determined from the fraction f(I) of supercoiled DNA remaining after treatment with the [peptide-Cu] reagent. f(I)=exp[−(n1+n2)] […] In these studies, both n1 and n2 were calculated by use of equations (1) and (2).

[2] = tested on: HCV IRES RNA; assay: HCV IRES RNA cleavage, denaturing gel; type: biochemical; details: RNA 2 μM, RNA to metal complex 1 to 10, 1 mM ascorbic acid, 37° C., 24 hours
Experimental: The cleavage of HCV IRES RNA by GGHG-(D) peptide copper complexes was studied. […] The HCV IRES RNA cleavage reactions by peptide copper complexes, free Cu^2+, or other peptide metal complexes were carried out at 37° C. in a buffer of 50 mM HEPES pH 7.0, 100 mM NaCl, 2 mM MgCl2. After reactions, 2 μL of loading buffer containing 10% glycerol, 0.05M EDTA, and 6M urea was added into each 10 μL reaction mixture and was then heated at 95° C. for 5 min before loading into 20% acrylamide, 8M urea gel with 0.5×TAE buffer and running voltage around 100 V for overnight. Before cleavage reaction, HCV IRES RNA was heated at 95° C. for 5 min and cooled to room temperature in order to fold into correct structure.
The concentration of RNA in cleavage reaction is 2 μM. The ratio of RNA to metal complexes is 1 to 10. The oxidative cleavage reaction is performed by adding ascorbic acid to a final concentration of 1 mM and a total volume of 10 μL at 37° C. for 24 hours. The result of the cleavage reaction is obtained by running a 20% denaturing polyacrylamide gel. […] No hydrolytic product has been observed from the result. […]
The time-dependence of cleavage was also examined. […] After the reaction is finished, the result of the reaction is analyzed by running 20% acrylamide gel. The cleavage effect by peptide copper complexes is analyzed by the intensity of the fluorescent image of each band by Biorad GelDoc. […]

[3] = tested on: RRE RNA; assay: RRE RNA cleavage, denaturing PAGE and mass spectrometry; type: biochemical, HIV; details: for RRE RNA cleavage (PAGE / mass spectrometry): in the presence of ascorbate, 1:1 with RRE RNA, 37° C., 6 hours; for t1 of RRE RNA substrate decrease: [RRE]=5 μM, complex/RRE 1:1, 37° C.
Experimental: Control reactions were carried out at the same time (FIG. 18). The reactions were quenched with a loading buffer containing 8 M Urea and 0.5 M EDTA, but without dyes. The loading buffer with dyes was run in another lane to control the electrophoresis. The reaction samples were loaded onto either 15% or 20% polyacrylamide/8M urea denaturing gels (from American Bioanalytical) and electrophoresed at 300 V for 8 h. To avoid any influence on fluorescein, the reactions and gel eletrophoresis were performed in the dark. Each experiment was carried out at least in triplicate.
RNA cleavage reactions were performed in 40 μl total volumes with 100 μM unlabeled RRE RNA, 1:1 concentration ratio of Cu-peptide complex with 1 mM ascorbate in 20 mM Hepes buffer, 100 mM NaCl, pH=7.4 at 37° C. Control reactions were carried out with RRE RNA and ascorbate. ESI/MS was used to get the mass of the cleavage products. Electrospray ionization (ESI) experiments were performed on a Micromass Q-Tof™ II (Micromass, Wythenshawe, UK) mass spectrometer equipped with an orthogonal nanospray source from New Objective, Inc. (Woburn, Mass.) operated in negative ion mode. Sodium Iodide was used for mass calibration for a calibration range of m/z 500-3000. Salt buffers from the RNA samples were removed using ZipTips (Millipore, Billerica, Mass.) following recommended manufacturer protocols. The elutants from the ZipTip were used directly and infused into the electrospray source at a rate of […]. Optimal ESI conditions were: capillary voltage 3000 V, source temperature 110° C. and a cone voltage of 60 V. Q1 was set to optimally pass ions from m/z 500-3000 and all ions transmitted into the pusher region of the TOF analyzer were scanned over m/z (your ramge) with a 1 s integration time. Data was acquired in continuum mode until acceptable averaged data was obtained (10-15 minutes). ESI data was deconvoluted using MaxEnt I provided by Micromass (FIGS. 19-21) and the cleavage sites were assigned (FIG. 22).

[4] = target: HCV IRES RNA; assay: Binding to fluorescein-labeled HCV IRES, 96-well fluorescent reader; details: 10 nM HCV IRES, 50 mM HEPES pH 7.0, 100 mM NaCl, 2 mM MgCl2; read-out: dissociation constant between HCV IRES and the ligand
Experimental: The binding constants for peptides to HCV IRES was determined by fluorescence methods. The sequence of the HCV IRES RNA is: […] (SEQ ID NO: 33). The sequence of the peptide recognition motif is: Y-(D)-RFK. The sequence of the metal binding peptide is: GGH. The sequence of the ligand having a metal binding domain and a recognition domain is GGHGY-(D)-RFK, where (D) indicates a (D) configuration amino acid.
A 10 nM HCV IRES with a fluoroscein label was titrated with increasing concentrations of the ligand, ranging from 5 to 1000 nM in a 50 mM HEPES pH 7.0, 100 mM NaCl, 2 mM MgCl2 to a total volume […]. The water used in this experiment was treated with DEPC at 37° C. overnight and autoclaved. HCV IRES RNA was heated at 95° C. for three minutes, and then slowly cooled to the room temperature. The binding event was determined by 96-well fluorescent reader with excitation wavelength at 494 nm and emission wavelength at 520 nm. The result data was plotted as fraction versus peptide concentration (FIG. 29) and then fitted with one site-binding model, where y is equal to API, and x is peptide concentration. y=Bx/(Kd+x)

[5] = target: HIV RRE RNA; assay: Fluorescence quenching binding to 5'-fluorescein labeled RRE RNA; details: 20 mM Hepes, 100 mM NaCl, pH 7.4, room temperature
Experimental: (§1) A 6 nM solution of 5′-fluorescein labeled RRE RNA (molecular concentration) was prepared in 20 mM Hepes buffer, 100 mM NaCl, pH=7.4. A 1 μl aliquot of 5 μM (for RRE test) or 25 μM (for TAR test) peptide or Cu-peptide complex was measured in a 300 μl quartz cuvette at room temperature using a Perkin Elmer LS50B spectrofluorimeter, with excitation (slit=6) and emission (slit=6) wavelengths set at 490 nm and 515 nm, respectively. Dissociation constants were obtained by fitting fluorescence quenching date to a one site binding equation r=Bx/(Kd+X) with binding function r (where r=(yt−y0)/(yfinal−yinitial)) versus x as peptide or Cu-peptide complex concentration (FIG. 17). The values for the dilution effect have already been subtracted from each point. Since our Cu-Rev1 complex has very little absorbance (ε515˜30 M^−1cm^−1), the inner filter effect is negligible in this assay.

[6] = tested on: GFP-RRE construct (RRE RNA fused downstream of GFP mRNA); type: cell-based, Escherichia coli; details: 10 μM final concentration; for GFP (GFP-RRE construct) expression, fluorescence intensity/total protein (mg) of control: control without any treatment
Experimental: Escherichia coli strain BL21 (DE3) cells containing pET-21 GFP (as non-specific cleavage control) or pET-21GFP-RRE plasmid were grown to an OD600 of around 0.6, and the over-expression was induced with 0.5 mM IPTG at 37° C. incubation. The cell pellets from 500 1 culture were resuspended in resuspension buffer,^3 then lysed with sonicating. After centrifugation (14,000 rpm for 20 min), the cell lysate for each sample was transferred onto 96 well plate and the fluorescence of GFP protein was monitored by a Perkin Elmer LS50B spectrofluorimeter. Excitation and emission wavelengths were set to 390 nm and 510 nm, respectively. The amount of total protein in each cell lysate was measured with Bio-Rad protein assay.
Basically, once the RRE RNA fused downstream of the GFP mRNA is recognized and cleaved by metal-rev peptide complexes, the expression level of GFP protein will decrease accordingly, which can be monitored by the fluorescence intensity.
The expression level of GFP (GFP-RRE construct) was managed by the fluorescent emission intensity at 510 nm, with λex=390 nm. […] To correct the influence of the total number of cells lysated, the fluorescent emission intensity at 510 nm was divided by the amount of total protein for each sample.

[7] = target: HIV TAR RNA; assay: Fluorescence quenching binding to 5' FL-labeled TAR RNA (binding specificity); details: 20 mM Hepes, 100 mM NaCl, pH 7.4, room temperature
Experimental: as §1

[Cu+2] [Cu^2+(aq), reference compound]
DNA cleavage products / pattern on gel ([1]; with ascorbate): smear pattern
HCV IRES RNA cleavage (gel) [2]: efficiency is significantly lower
RRE RNA cleavage (PAGE / mass spectrometry) [3]: random cleavage

GGHGY-(D)-RFK [the ligand]
Kd [4]: 5.2 nM

GGHTRQARRNRRRRWRERQR [Rev1]
Kd [5]: ~30 nM
GFP (GFP-RRE construct) expression, fluorescence intensity/total protein (mg) of control [6]: around 40%
Kd [7]: ~5000 nM
RRE RNA cleavage (PAGE / mass spectrometry) [3]: no reaction was observed

TRQARRNRRRRWRERQR [Rev peptide, reference compound]
effect on GFP (GFP-RRE construct) expression [6]: No decrease

[GGH-Cu]^−: complex of peptide GGH with divalent copper (Gly-Gly-His; also: complex with divalent copper)
time to quantitative production of nicked plasmid DNA (form II) ([1]; [DNA]=50 μM, complex 25 μM, ascorbate 250 μM): ≤ 28 min
kobs, pseudo-first order disappearance of supercoiled DNA ([1]; [DNA]=50 μM, complex 25 μM, ascorbate 250 μM, 10 mM Tris pH 7.4, 37° C.): ~0.07 min⁻¹
k2, second-order rate constant of DNA cleavage ([1]; from ln V0 plots, with ascorbate): ~39 M⁻¹ s⁻¹
concentration at which DNA cleavage activity is evident ([1]; in the presence of ascorbate): 10 µM
DNA cleavage products / pattern on gel ([1]; with ascorbate): linear DNA was not found

copper complex of Rev1 peptide GGHTRQARRNRRRRWRERQR [Cu-Rev1]
Kd [5]: ~35 nM
GFP (GFP-RRE construct) expression, fluorescence intensity/total protein (mg) of control [6]: around 40%
Kd [7]: ~5000 nM
RRE RNA cleavage in the absence of ascorbate ([3]; hydrolytic condition): much slower pace
t1 of RRE RNA substrate decrease ([3]; hydrolytic condition): 6.36 h
RRE RNA cleavage (PAGE / mass spectrometry) ([3]; listed as Cu-Rev1 peptide complex): three specific cleavage sites
RRE RNA cleavage (PAGE / mass spectrometry) ([3]; listed as Cu-peptide complex): effective
t1 of RRE RNA substrate decrease ([3]; oxidative condition with ascorbate): 4.75 h
